# Experimental data published in US12473295B2, “Substituted straight chain spiro derivatives” (Janssen Pharmaceutica NV, priority 2019, dated 2025).
# Counter-ions that a name gives are not always drawn.
# How the values were obtained:
# [1] = system: MOLM14 cells; experiment: Proliferation assay (spheroid growth, 8 days), MOLM14; assay type: cell-based, human; details: Homo sapiens, MOLM-14, […], MOLM14, 8 days; read-out: spheroid assay_OneTime MOLM14 IC50;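 also: spheroid size read as confluence by live-cell imaging, compounds added at a range of concentrations with 0.3% DMSO, DMSO-treated wells = 0%, highest reference dose = low control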
# [2] = system: KO-52 cells; experiment: Proliferation assay (spheroid growth, 8 days), KO-52 control cell line; assay type: cell-based, human; details: Homo sapiens, […], read-out: spheroid assay_OneTime KO-52 IC50
# Outline: (§1)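 200 MOLM14 (MLL-AF9), 200 OCI-AML3 (NPM1c) or 300 KO-52 (MLL wildtype) cells were grown as spheroids in ultra-low attachment wells with compound, 0.3% DMSO, for 8 days at 37 °C. Confluence was imaged on day 8, normalized to DMSO and top-dose reference compound. IC50 came from a variable-slope fit constrained 0–100%.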
# [3] = system: OCI-AML3 cells; experiment: Proliferation assay (spheroid growth, 8 days), OCI-AML3; assay type: cell-based, human; details: Homo sapiens, OCI-AML-3, […], OCI-AML3, 8 days
# Outline: as §1
# [4] = system: MEIS1 mRNA; experiment: MEIS1 mRNA expression assay (Quantigene Singleplex) in MOLM14 cells; assay type: cell-based, human; details: Homo sapiens, MOLM-14, 48 h, 48 hours incubation;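 also: MEIS1 transcript levels read by probe hybridization and normalized to RPL28 mRNA, with IC50 fitted to fold changes across a rising compound concentration series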
# [5] = target: menin/MLL (terbium chelate-labeled menin, FITC-MBM1 peptide) (Homo sapiens (Human), UniProt O00255); experiment: Menin/MLL homogenous time-resolved fluorescence (HTRF) assay; assay type: binding; details: HTRF-30 min incubation IC50, 30 min incubation;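 also: IC50 from percent inhibition of HTRF signal, normalized between wells without competitor and wells with a saturating competitor that displaces FITC-MBM1 from His-tagged menin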
# menin/MLL (terbium chelate-labeled menin, FITC-MBM1 peptide), sequence (O00255 other isoform, or with tags, fused parts or gaps): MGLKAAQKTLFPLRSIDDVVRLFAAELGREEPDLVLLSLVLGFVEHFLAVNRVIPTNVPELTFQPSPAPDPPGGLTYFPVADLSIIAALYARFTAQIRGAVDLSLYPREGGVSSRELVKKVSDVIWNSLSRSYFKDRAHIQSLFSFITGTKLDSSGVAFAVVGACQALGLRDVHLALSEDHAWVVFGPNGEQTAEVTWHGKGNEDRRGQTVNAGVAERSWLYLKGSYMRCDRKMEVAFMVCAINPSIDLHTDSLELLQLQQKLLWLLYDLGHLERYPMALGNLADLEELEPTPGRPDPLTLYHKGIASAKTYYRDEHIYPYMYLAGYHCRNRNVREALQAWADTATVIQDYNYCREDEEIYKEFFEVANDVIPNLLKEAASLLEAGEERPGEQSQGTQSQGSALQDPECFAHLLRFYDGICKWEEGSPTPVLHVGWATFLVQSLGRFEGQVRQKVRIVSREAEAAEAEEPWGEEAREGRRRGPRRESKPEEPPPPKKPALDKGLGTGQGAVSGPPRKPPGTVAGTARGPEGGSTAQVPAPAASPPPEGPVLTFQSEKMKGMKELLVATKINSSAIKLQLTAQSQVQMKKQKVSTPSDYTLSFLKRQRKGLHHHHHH
SMILES,IC50 [1] [nM],IC50 [2] [nM],IC50 [3] [nM],IC50 [4] [nM],IC50 [5] [nM]
"CCN(C(=O)c1cc(F)ccc1Oc1nncnc1N1CCC2(C1)CN([C@H](CCCN(C)[C@@H](CO)COC)C(C)C)C2)C(C)C [Compound 167, N-ethyl-5-fluoro-2-((5-(2-((R)-6-(((S)-1-hydroxy-3-methoxypropan-2-yl)(methyl)amino)-2-methylhexan-3-yl)-2,6-diazaspiro[3.4]octan-6-yl)-1,2,4-triazin-6-yl)oxy)-N-isopropylbenzamide fumarate]",17,> 15000,65,18,0.16
"CCN(C(=O)c1cc(F)ccc1Oc1nncnc1N1CCC2(C1)CN([C@H](CCCNCC(CO)OC)C(C)C)C2)C(C)C (stereo partly drawn) [Compound 168, N-ethyl-5-fluoro-2-((5-(2-((3R)-6-((3-hydroxy-2-methoxypropyl)amino)-2-methylhexan-3-yl)-2,6-diazaspiro[3.4]octan-6-yl)-1,2,4-triazin-6-yl)oxy)-N-isopropylbenzamide]",49,> 15000,370,74,0.1
"CCN(C(=O)c1cc(F)ccc1Oc1nncnc1N1CCC2(C1)CN([C@H](CCCN(C)CC(CO)OC)C(C)C)C2)C(C)C (stereo partly drawn) [Compound 170, N-ethyl-5-fluoro-2-((5-(2-((3R)-6-((3-hydroxy-2-methoxypropyl)(methyl)amino)-2-methylhexan-3-yl)-2,6-diazaspiro[3.4]octan-6-yl)-1,2,4-triazin-6-yl)oxy)-N-isopropylbenzamide fumarate]",25,> 15000,41,37,0.1
"CCN(C(=O)c1cc(F)ccc1Oc1nncnc1N1CCC2(C1)CN([C@H](CCCNCC(COC)OC)C(C)C)C2)C(C)C (stereo partly drawn) [Compound 172, 2-((5-(2-((3R)-6-((2,3-dimethoxypropyl)amino)-2-methylhexan-3-yl)-2,6-diazaspiro[3.4]octan-6-yl)-1,2,4-triazin-6-yl)oxy)-N-ethyl-5-fluoro-N-isopropylbenzamide fumarate]",23,13400,38,13,0.13
"CCN(C(=O)c1cc(F)ccc1Oc1nncnc1N1CCC2(C1)CN([C@H](CCCN(C)C(C)CC(=O)N(C)C)C(C)C)C2)C(C)C (stereo partly shown) [Compound 179, fumarate]",33,> 15000,59,27,0.13
"CCN(C(=O)c1cc(F)ccc1Oc1nncnc1N1CCC2(C1)CN([C@H](CCCN(C)CC(C)C(=O)N(C)C)C(C)C)C2)C(C)C (stereo partly drawn) [Compound 181, 2-((5-(2-((3R)-6-((3-(dimethylamino)-2-methyl-3-oxopropyl)(methyl)amino)-2-methylhexan-3-yl)-2,6-diazaspiro[3.4]octan-6-yl)-1,2,4-triazin-6-yl)oxy)-N-ethyl-5-fluoro-N-isopropylbenzamide fumarate]",23,14000,44,17,0.079
"CCN(C(=O)c1cc(F)ccc1Oc1nncnc1N1CCC2(C1)CN([C@H](CCCN(C)[C@H](C)CC(=O)NC)C(C)C)C2)C(C)C [Compound 191, N-ethyl-5-fluoro-N-isopropyl-2-((5-(2-((R)-2-methyl-6-(methyl((R)-4-(methylamino)-4-oxobutan-2-yl)amino)hexan-3-yl)-2,6-diazaspiro[3.4]octan-6-yl)-1,2,4-triazin-6-yl)oxy)benzamide fumarate]",280,> 15000,560,220,0.28
"CCN(C(=O)c1cc(F)ccc1Oc1nncnc1N1CCC2(C1)CN([C@H](CCCN(C)[C@@H](C)CC(=O)NC)C(C)C)C2)C(C)C [Compound 193, N-ethyl-5-fluoro-N-isopropyl-2-((5-(2-((R)-2-methyl-6-(methyl((S)-4-(methylamino)-4-oxobutan-2-yl)amino)hexan-3-yl)-2,6-diazaspiro[3.4]octan-6-yl)-1,2,4-triazin-6-yl)oxy)benzamide fumarate]",170,> 15000,290,120,~0.26
"CCN(C(=O)c1cc(F)ccc1Oc1nncnc1N1CCC2(C1)CN([C@H](CCCN(C)C[C@@H](C)C(=O)NC)C(C)C)C2)C(C)C [Compound 195, N-ethyl-5-fluoro-N-isopropyl-2-((5-(2-((R)-2-methyl-6-(methyl((R)-2-methyl-3-(methylamino)-3-oxopropyl)amino)hexan-3-yl)-2,6-diazaspiro[3.4]octan-6-yl)-1,2,4-triazin-6-yl)oxy)benzamide fumarate]",70,> 15000,58,56,~0.4
"CCN(C(=O)c1cc(F)ccc1Oc1nncnc1N1CCC2(C1)CN([C@H](CCCN(C)C[C@H](C)C(=O)NC)C(C)C)C2)C(C)C [Compound 197, N-ethyl-5-fluoro-N-isopropyl-2-((5-(2-((R)-2-methyl-6-(methyl((S)-2-methyl-3-(methylamino)-3-oxopropyl)amino)hexan-3-yl)-2,6-diazaspiro[3.4]octan-6-yl)-1,2,4-triazin-6-yl)oxy)benzamide fumarate]",45,> 15000,36,36,0.3
"CCN(C(=O)c1cc(F)ccc1Oc1nncnc1N1CCC2(C1)CN([C@H](CCCN(C)C(CO)CO)C(C)C)C2)C(C)C [Compound 256, (R)-2-((5(2-(6-((1,3-dihydroxypropan-2-yl)(methyl)amino)-2-methylhexan-3-yl)-2,6-diazaspiro[3.4]octan-6-yl)-1,2,4-triazin-6-yl)oxy)-N-ethyl-5-fluoro-N-isopropylbenzamide fumarate]",84,> 15000,360,130,0.15
"CCN(C(=O)c1cc(F)ccc1Oc1nncnc1N1CCC2(C1)CN([C@H](CCCN(C)CCO)C(C)C)C2)C(C)C [Compound 259, (R)-N-ethyl-5-fluoro-2-((5-(2-(6-((2-hydroxyethyl)(methyl)amino)-2-methylhexan-3-yl)-2,6-diazaspiro[3.4]octan-6-yl)-1,2,4-triazin-6-yl)oxy)-N-isopropylbenzamide fumarate]",46,> 15000,250,65,0.16
"CCN(C(=O)c1cc(F)ccc1Oc1nncnc1N1CCC2(C1)CN([C@H](CCCNC[C@@H](O)COC)C(C)C)C2)C(C)C [Compound 281, N-ethyl-5-fluoro-2-((5-(2-((R)-6-(((R)-2-hydroxy-3-methoxypropyl)amino)-2-methylhexan-3-yl)-2,6-diazaspiro[3.4]octan-6-yl)-1,2,4-triazin-6-yl)oxy)-N-isopropylbenzamide formate]",48,> 15000,90,38,0.24
"CCN(C(=O)c1cc(F)ccc1Oc1nncnc1N1CCC2(C1)CN([C@H](CCCN(C)C[C@@H](O)COC)C(C)C)C2)C(C)C [Compound 283, N-ethyl-5-fluoro-2-((5-(2-((R)-6-(((R)-2-hydroxy-3-methoxypropyl)(methyl)amino)-2-methylhexan-3-yl)-2,6-diazaspiro[3.4]octan-6-yl)-1,2,4-triazin-6-yl)oxy)-N-isopropylbenzamide fumarate]",14,> 15000,46,10,0.054
"CCN(C(=O)c1cc(F)ccc1Oc1nncnc1N1CCC2(C1)CN([C@H](CCCNC[C@H](O)COC)C(C)C)C2)C(C)C [Compound 284, N-ethyl-5-fluoro-2-((5-(2-((R)-6-(((S)-2-hydroxy-3-methoxypropyl)amino)-2-methylhexan-3-yl)-2,6-diazaspiro[3.4]octan-6-yl)-1,2,4-triazin-6-yl)oxy)-N-isopropylbenzamide formate]",23,> 15000,73,50,~0.36
"CCN(C(=O)c1cc(F)ccc1Oc1nncnc1N1CCC2(C1)CN([C@H](CCCN(C)C[C@H](O)COC)C(C)C)C2)C(C)C [Compound 285, N-ethyl-5-fluoro-2-((5-(2-((R)-6-(((S)-2-hydroxy-3-methoxypropyl)(methyl)amino)-2-methylhexan-3-yl)-2,6-diazaspiro[3.4]octan-6-yl)-1,2,4-triazin-6-yl)oxy)-N-isopropylbenzamide formate]",160,> 15000,130,270,1.02
"CCN(C(=O)c1cc(F)ccc1Oc1nncnc1N1CCC2(C1)CN([C@H](CCC(C)N(C)CCOC)C(C)C)C2)C(C)C (stereo partly drawn) [Compound 300, N-ethyl-5-fluoro-N-isopropyl-2-((5-(2-((3R)-6-((2-methoxyethyl)(methyl)amino)-2-methylheptan-3-yl)-2,6-diazaspiro[3.4]octan-6-yl)-1,2,4-triazin-6-yl)oxy)benzamide fumarate]",36,> 15000,71,29,0.066
